Source: ChEMBL document CHEMBL5620439, “Talaromides A-C, Bioactive Cyclic Heptapeptides from Talaromyces siglerae Isolated from a Marine Sponge” (2024)
Active and inactive are the calls of the source. The calls are words filed in the database; no cut-off is given here.

How the values were obtained:
PANC-1 [1] = assay: Cytotoxicity against human PANC-1 cells assessed as reduction in cell viability at 10 to 100 uM incubated for 72 hrs by MTT assay; type: functional, cell-based; conditions: dose 10-100 µM
PANC-1 [2] = assay: Antimetastatic activity in human PANC-1 cells assessed as decrease in migration at 80 uM incubated for 48 hrs by scratch wound healing assay relative to control; type: functional; parameters: scale not given: the % may be the effect or the level left
Bacillus subtilis = assay: Antimicrobial activity against Bacillus subtilis 1021; type: functional, organism-based
[3] = tested on: Staphylococcus epidermidis; assay: Antimicrobial activity against Staphylococcus epidermidis 1917; type: functional, organism-based
Salmonella typhimurium = assay: Antimicrobial activity against Salmonella typhimurium 2515; type: functional, organism-based; conditions: Salmonella enterica subsp. enterica serovar Typhimurium
Escherichia coli = assay: Antimicrobial activity against Escherichia coli 2441; type: functional, organism-based
Staphylococcus aureus [4] = assay: Antimicrobial activity against methicillin sensitive Staphylococcus aureus CCARM 0204; type: functional, organism-based
Staphylococcus aureus [5] = assay: Antimicrobial activity against methicillin sensitive Staphylococcus aureus CCARM 0205; type: functional, organism-based
Staphylococcus aureus [6] = assay: Antimicrobial activity against methicillin sensitive Staphylococcus aureus CCARM 3090; type: functional, organism-based
Staphylococcus aureus [7] = assay: Antimicrobial activity against methicillin sensitive Staphylococcus aureus CCARM 3635; type: functional, organism-based
RAW264.7 = assay: Inhibition of nitric oxide production in LPS-activated mouse RAW264.7 cells; type: functional, cell-based

SMILES	Activity (PANC-1 [1])	Activity (PANC-1 [2]) [%]	Activity (Bacillus subtilis)	Activity [3]	Activity (Salmonella typhimurium)	Activity (Escherichia coli)	Activity (Staphylococcus aureus [4])	Activity (Staphylococcus aureus [5])	Activity (Staphylococcus aureus [6])	Activity (Staphylococcus aureus [7])	inhibition (RAW264.7)
CC[C@@H](C)[C@H]1NC(=O)c2ccccc2NC(=O)[C@@H]2CCCN2C(=O)[C@@H]([C@H](C)CC)NC(=O)[C@H](C)NC(=O)[C@H]([C@@H](C)O)NC(=O)[C@@H](Cc2ccc(O)cc2)NC1=O	inactive	48	inactive	inactive	inactive	inactive	inactive	inactive	inactive	inactive	inactive
CC[C@@H](C)[C@H]1NC(=O)c2ccccc2NC(=O)[C@@H]2CCCN2C(=O)[C@@H](CC(C)C)NC(=O)[C@H](C)NC(=O)[C@H]([C@@H](C)O)NC(=O)[C@@H](Cc2ccc(O)cc2)NC1=O	inactive		inactive	inactive	inactive	inactive	inactive	inactive	inactive	inactive	inactive
CC[C@@H](C)[C@H]1NC(=O)[C@H](C)NC(=O)[C@H]([C@@H](C)O)NC(=O)[C@@H](Cc2ccc(O)cc2)NC(=O)[C@@H](C(C)C)NC(=O)c2ccccc2NC(=O)[C@@H]2CCCN2C1=O	inactive	52	inactive	inactive	inactive	inactive	inactive	inactive	inactive	inactive	inactive
